# ChEMBL document CHEMBL1144758, “Semisynthetic studies on the manzamine alkaloids” (J Nat Prod, 2008)
# Calls of active or inactive are those of the source. No cut-off for these calls is given here.
# Columns and labels:
# Microglia [1] = assay: Antiinflammatory activity in Escherichia coli lipopolysaccharide-activated rat neonatal microglia assessed as inhibition of oxygen radical; assay type: functional, cell-based
# [2] = tested on: Mycobacterium tuberculosis; assay: Antibacterial activity against Mycobacterium tuberculosis H37Rv by microplate alamar blue assay; assay type: functional; design: Activity: concentration or dose not given beside the values; conditions: for MIC: Mycobacterium tuberculosis, H37Rv
# [3] = Antiinflammatory activity in Escherichia coli lipopolysaccharide-activated rat neonatal microglia assessed as inhibition of eicosanoid thromboxane B2; assay type: functional, cell-based
# Microglia [4] = assay: Antiinflammatory activity in Escherichia coli lipopolysaccharide-activated rat neonatal microglia assessed as inhibition of eicosanoid thromboxane B2 at 30 uM; assay type: functional, cell-based
# Microglia [5] = assay: Antiinflammatory activity in Escherichia coli lipopolysaccharide-activated rat neonatal microglia assessed as inhibition of oxygen radical at 30 uM; assay type: functional
# [6] = tested on: Mycobacterium tuberculosis; assay: Antibacterial activity against Mycobacterium tuberculosis H37Rv at 0.5 ug/mL by microplate alamar blue assay; assay type: functional
# P388 = assay: Cytotoxicity against mouse P388 cells; assay type: functional, cell-based
SMILES,Activity (Microglia [1]),Activity [2],MIC [2],IC50 [3],Activity (Microglia [4]),Activity (Microglia [5]),Activity [6],IC50 (P388)
"Oc1cccc2c1[nH]c1c([C@H]3C[C@@]4(O)CCCCCCCCN5CC[C@@H]3[C@]3(C[C@@H]6CCCCCCN6[C@@H]43)C5)nccc12 [10,11,15,16,32,33-HEXAHYDRO-8-HYDROXYMANZAMINE A]",inactive,95%,< 12.5 µg/mL,1.97 µM,,,,
O[C@]12C=C(c3nccc4c3[nH]c3ccccc34)[C@@H]3CCN(CCCC/C=C\CC1)C[C@@]31C[C@@H]3/C=C\CCCCN3[C@H]12 [MANZAMINE A],inactive,95%,< 12.5 µg/mL,< 0.1 µM,,,,
"O[C@]12C=C(c3nccc4c3[nH]c3ccccc34)[C@@H]3CCN(CCCC/C=C\CC1)C[C@@]31C[C@@H]3CCCCCCN3[C@H]12 [32,33-DIHYDROMANZAMINE A]",,95%,< 12.5 µg/mL,,inactive,inactive,,
CC(=O)Oc1cccc2c1[nH]c1c([C@@H]3C=C4CC/C=C\CCCCN5CC[C@H]3[C@]3(C5)C(C(C)=O)=C5/C(C(C)=O)=C\CCCCN5[C@H]43)nccc12,,95%,< 12.5 µg/mL,,inactive,inactive,,
CO[C@H]1/C=C/O[C@@]2(C)Oc3c(C)c(O)c4c(O)c(c(/C=N/N5CCN(C)CC5)c(O)c4c3C2=O)NC(=O)/C(C)=C\C=C\[C@H](C)[C@H](O)[C@@H](C)[C@@H](O)[C@@H](C)[C@H](OC(C)=O)[C@@H]1C [RIFAMPIN],,,,,,,100%,
O[C@]12C=C(c3nccc4c3[nH]c3ccccc34)[C@@H]3CCN(CCCCCCCC1)C[C@@]31C[C@@H]3CCCCCCN3[C@H]12 [TETRAHYDROMANZAMINE A],,95%,< 12.5 µg/mL,,inactive,inactive,,
"Oc1cccc2c1[nH]c1c(C3=C[C@]4(O)CC/C=C\CCCCN5CC[C@H]3[C@@]3(C[C@H]6CC[C@H](O)CCCN6[C@@H]34)C5)nccc12 [31BETA-HYDROXY-32,33-DIHYDRO-8-HYDROXYMANZAMINE A]",,100%,< 6.25 µg/mL,,inactive,inactive,,
Oc1cccc2c1[nH]c1c(C3=C[C@]4(O)CC/C=C\CCCCN5CC[C@H]3[C@@]3(C[C@H]6/C=C\CCCCN6[C@@H]34)C5)nccc12 [ENT-8-HYDROXYMENZAMINE A],inactive,95%,< 12.5 µg/mL,0.25 µM,,,,0.25 µg/mL
O[C@@H]1CCCN2CC[C@@H]1O[C@@]13CC[C@@H](OC[C@]45CN6CCCC/C=C\CC[C@](O)(C=C(c7nccc8c7[nH]c7ccccc78)[C@@H]4CC6)[C@H]25)[C@@H](O)CCN1[C@@H]1[C@]2(CN4CCCC/C=C\CC[C@]1(O)C=C(c1nccc5c1[nH]c1ccccc15)[C@@H]2CC4)C3 [NEO-KAULUAMINE],,44%,,,,,,
O=C1CCCN2[C@@H](CC1)C[C@]13CN4CCCC/C=C\CC[C@](O)(C=C(c5nccc6c5[nH]c5c(O)cccc56)C1CC4)[C@H]23 (some centres undefined) [MANZAMINE F],,95%,< 12.5 µg/mL,,inactive,inactive,,
CC(=O)C1=C2/C=C\CCCCN2[C@H]2C3=C[C@H](c4nccc5c4[nH]c4ccccc45)[C@@H]4CCN(CCCC/C=C\CC3)C[C@]124,,,,,inactive,inactive,,
CC(=O)C1=C2/C(C(C)=O)=C\CCCCN2[C@H]2C3=C[C@H](c4nccc5c4[nH]c4ccccc45)[C@@H]4CCN(CCCC/C=C\CC3)C[C@]124,,95%,< 12.5 µg/mL,,inactive,inactive,,
CC(=O)O/C(C)=C1\C[C@@H](OC(C)=O)CCCN2C1=C(C(C)=O)[C@@]13CN4CCCC/C=C\CCC(=C[C@@H](c5nccc6c5[nH]c5c(OC(C)=O)cccc56)[C@H]1CC4)[C@@H]23,,95%,< 12.5 µg/mL,,inactive,inactive,,
Oc1cccc2c1[nH]c1c(C3=C[C@]4(O)CCCCCCCCN5CC[C@H]3[C@@]3(C[C@H]6CCCCCCN6[C@@H]34)C5)nccc12,,95%,< 12.5 µg/mL,,inactive,inactive,,
Oc1cccc2c1[nH]c1c(C3=C[C@@]4(O)CC/C=C\CCCCN5CC[C@@H]3[C@]3(CC6/C=C\CCCCN6[C@H]34)C5)nccc12 (some centres undefined),,100%,< 6.25 µg/mL,,inactive,inactive,,> 20 µg/mL
"Oc1cccc2c1[nH]c1c(C3=C[C@@]4(O)CCCCCCCCN5CC[C@@H]3[C@]3(C[C@@H]6CCCCCCN6[C@H]34)C5)nccc12 [15,16,32,33-TETRAHYDRO-8-HYDROXYMANZAMINE A]",,95%,< 12.5 µg/mL,,inactive,inactive,,
CC(=O)Oc1cccc2c1[nH]c1c(C3=C[C@]4(OC(C)=O)CC/C=C\CCCCN5CC[C@H]3[C@@]3(C[C@H]6/C=C\CCCCN6[C@@H]34)C5)nccc12,,95%,< 12.5 µg/mL,,inactive,inactive,,
CC(=O)Oc1cccc2c1[nH]c1c([C@@H]3C=C4CC/C=C\CCCCN5CC[C@H]3[C@]3(C5)C(C(C)=O)=C5/C=C\CCCCN5[C@H]43)nccc12,,95%,< 12.5 µg/mL,,inactive,inactive,,
"Oc1cccc2c1[nH]c1c(C3=C[C@]4(O)CC/C=C\CCCCN5CC[C@H]3[C@@]3(C[C@H]6CC[C@@H](O)CCCN6[C@@H]34)C5)nccc12 [31ALPHA-HYDROXY-32,33-DIHYDRO-8-HYDROXYMANZAMINE A]",,61%,,,inactive,inactive,,
